# Reference: patent US20240075088A1, “BIOACTIVE EXTRACTION METHOD” (Performance Labs Pte. Ltd., priority 2022, published 2024)
# Assay: DPPH radicals scavenging capacity assay
# Type: biochemical
# Experimental: DPPH radicals scavenging capacity assay: The ability of the plant extract to scavenge DPPH free radicals was assessed by using the method described by Takao et al. (Takao et al., 1994).
# The stock solution of the plant extract was prepared in methanol to achieve the concentration of 2000 μg/ml. Further, two-fold dilutions were made to obtain concentrations of 1000, 500, 250, 125, 62.5, 31.25, 15.62 μg/ml. Diluted solutions of extract (2 ml each) were mixed with 2 ml of DPPH methanol solution (80 μg/ml). After 30 min in darkness at room temperature, the absorbance was read in a spectrophotometer at 517 nm. The control samples consisted of 2 ml of methanol added to 2 ml of DPPH solution. Caffeoylquinic acid and ascorbic acid was used as a positive control. The experiment was performed in triplicate. Scavenging activity is expressed as the inhibition percentage calculated using the following equation: Scavenging activity (%)=100×[Acontrol−Asample)/Acontrol)], where Acontrol is the absorbance of the control and Asample is the absorbance of the extract.
# It was obtained from the graph of scavenging activity (%) versus concentration of samples. Low IC50 value indicates strong ability of the extract to act as DPPH scavenger.
# To evaluate the antioxidant activity of different fractions, an assay method based on the reduction of DPPH was performed.
SMILES,"DPPH antioxidant assay IC50 (concentration at which 50% of DPPH radicals were scavenged, DPPH methanol solution 80 μg/ml, 30 min in darkness, absorbance 517 nm, triplicate)","antioxidant activity (DPPH), conclusion in words (inferred from comparison of the 20% and 70% ethanol fractions)"
"O=C1O[C@H]([C@@H](O)CO)C(O)=C1O [Ascorbic Acid, ascorbic acid]",59.4 µg/mL,
Cn1c(=O)c2c(ncn2C)n(C)c1=O [caffeine],,did not contribute to antioxidant activity
